Patent publication US9586896B2, “Nitroxyl donors with improved therapeutic index” (Cardioxyl Pharmaceuticals, Inc., priority 2013, dated 2017)
In brackets after ≈: the same amount, converted by molar mass. Read-outs that look alike come from different tables or passages of the source.

Legend:
dogs [1] = experiment: 14-day continuous infusion tolerance study of CXL-1020 in dogs; type: in vivo
Method: During in vivo trials of the nitroxyl donor, CXL-1020 (N-hydroxy-2-methanesulfonylbenzene-1-sulfonamide), a 14-day study was conducted to evaluate tolerance in dogs treated with continuous infusions of CXL-1020 at dose rates of up to 90 μg/kg/min. […] To further investigate this undesirable side-effect, a follow-up 14-day study in dogs was initiated.

dogs [2] = experiment: 72-hour continuous infusion investigative studies of CXL-1020 in dogs (implanted catheter); type: in vivo; settings: 72-hour infusion
Method: To determine the cause of the inflammation and hind limb swelling, a series of 72-hour continuous infusion investigative studies were conducted over the following 6 months. […] The first site of inflammation, the catheter insertion site, caused the dog hind limb swelling and inflammation observed in the early-terminated follow-up study. Increasing infusate pH from 4 to 6 decreased inflammation, improving the inflammatory profile by approximately 3-fold.

healthy volunteers = experiment: 24-hour continuous infusion dose escalation study of CXL-1020 in healthy volunteers; type: in vivo, humans; settings: forearm vein infusion
Method: To determine whether a local phlebitis would occur in humans upon longer duration dosing, a longer duration study was conducted in healthy volunteers. The longer duration study included a dose escalation study in which cohorts of 10 volunteers were to be sequentially administered a 24-hour continuous infusion of CXL-1020 at the dose rates of 10, 20, and 30 μg/kg/min with a safety assessment between each cohort. Each cohort consisted of 2 placebo and 8 active treatments with a sentinel pair of 1 active and 1 placebo followed by the main group of 1 placebo and 7 active treatments. The infusion was via a percutaneous catheter inserted into a forearm vein. The catheter was switched to the contralateral arm after 12 hours of infusion.

[3] = In vitro stability (half-life) in rat plasma; type: in vitro ADME; settings: male, rat plasma pH 7.4, anticoagulant, 37° C., read-out: T1/2 (minutes) Rat
Method: (§1) Compound (1), compound (2), and CXL-1020 were tested for their stability in plasma. The assay system comprised (i) PBS, or plasma from rat, dog or human (at least 3 donors, male, pooled) at pH 7.4, and (ii) for tests conducted in plasma, an anticoagulant (sodium heparin or sodium citrate). Each test compound (5 μM) was incubated in PBS or plasma at 37° C. on a THERMOMIXER® with shaking Three samples (n=3) were taken at each of seven sampling time points: 0, 10, 30, 60, 90, 180 and 360 minutes. The samples were immediately combined with 3 volumes (i.e., 3 times the volume of PBS or plasma) of acetonitrile containing 1% formic acid and an internal standard to terminate the reaction. AB SCIEX API 3000 LC-MS/MS analysis of the test compounds was performed without a standard curve. Half-lives (T1/2) of the test compounds were determined from graphs of the percent remaining values using the peak area response ratio.

[4] = In vitro stability (half-life) in dog plasma; type: in vitro ADME; settings: male, dog plasma pH 7.4, anticoagulant, 37° C., read-out: T1/2 (minutes) Dog
Method: as §1

[5] = Solubility by visual assessment in pH 4 buffer; type: physicochemical; settings: pH 4 citrate buffer, pH 4, aqueous buffer, thermodynamic from solid, shaken 5 minutes
Method: Initially, the solubilities of the compounds of formula (1) and formula (2) were measured by visual assessment at 100 μg/mL and 1000 μg/mL in a pH 4 buffer. The buffer was prepared by mixing 660 mL of Solution A (10.5023 g of citric acid dissolved in 1 L of water) and […] of Solution B (14.7010 g of sodium citrate tribasic dihydrate dissolved in 1 L of water). The pH of the buffer was 3.98 as measured by pH meter. Each compound was shaken for about 5 minutes in the pH 4 buffer solution prepared above at two concentration points (100 μg/mL and 1000 μg/mL) and the solubility was observed visually.

[6] = Solubility in water in the absence of excipients; type: physicochemical; settings: for solubility thermodynamic: thermodynamic from solid, read-out: equilibrium solubility in water
Method: Additionally, a sample of the compound of formula (1) was prepared in water to determine the approximate solubility of the compound in the absence of excipients (e.g., CAPTISOL®). A concentration of approximately 300 mg/mL was achieved, not accounting for the volume contribution of the compound. The pH of the sample was determined to be 2.8, which was adjusted to the target of 4.0 using 0.1 N NaOH. Upon pH adjustment, precipitation of a small amount of solid was observed. […] A similar analysis was performed for the compound of formula (2). The compound of formula (2) has a solubility of approximately 10 mg/mL.

[7] = system: heart failure canines (microembolization model); experiment: Hemodynamic efficacy in canine microembolization heart failure model; type: in vivo, mongrel dogs; settings: 3 or 10 μg/kg/min infusion, FIG. 3
Method: Heart failure was produced using healthy, conditioned, purpose-bred mongrel dogs (20-26 kg) using a sequential microembolization model. Coronary microembolization was performed until LV-ejection fraction (determined angiographically under anesthesia) was approximately 30% or lower. Two weeks were then provided after the last microembolization to ensure stabilization of each animal prior to initiating experiments.
An initial dose-finding study (2-100 μg/kg/min for 40 min) was performed in 3 dogs to identify therapeutically relevant doses of a compound of formula (1). […] Only one dose was studied on a given day, the other at least one-week later, and the order randomized. […]
LV end-systolic volume (ESV) and end-diastolic volumes (EDV) were calculated from ventriculograms using the area-length method. […] LV fractional area of shortening (FAS) was measured from LV short axis view at the level of papillary muscles obtained from 2-dimensional echocardiograms. Measured indexes of LV diastolic function included deceleration time of mitral inflow velocity (DT), ratio of the integral of early mitral inflow velocity (Ei) to velocity during atrial contraction (Ai) (Ei/Ai) and LV end-diastolic circumferential wall stress (EDWS).
Measurements of myocardial oxygen consumption were performed at baseline and at 4 hours after 10 μg/kg/min infusion. […] Oxygen content was determined with a hemoximeter. […]

[8] = 100 μg/mL, read-out: Solubility (100 μg/mL)
[9] = 1000 μg/mL, read-out: Solubility (1000 μg/mL)

Compound	dose rate tolerated (dogs [1])	improvement of the inflammatory profile on increasing infusate pH from 4 to 6 (dogs [2])	dose rates at which significant undesirable side effects were still demonstrated (dogs [2]; infusate pH 6)	dose rates causing clinical pathology changes consistent with an inflammatory process (dogs [2]; pH 4 formulation, 1:1 molar CXL-1020:CAPTISOL in 5% dextrose)	tolerability at 10 μg/kg/min for 24-hours (healthy volunteers; 10 μg/kg/min)	findings at 20 μg/kg/min for 24-hours (healthy volunteers; 20 μg/kg/min)	half-life at 5 μM [3]	half-life at 5 μM [4]	solubility at 5 min [5, 8]	solubility at 5 min [5, 9]	pH of the sample in water ([6]; approximately 300 mg/mL in water before pH adjustment)	solubility thermodynamic ([6]; water, no excipients)	solubility ([6]; water without excipients, pH 2.8, thermodynamic from solid, water, no excipients, not accounting for the volume contribution of the compound, read-out: concentration achieved in water)	observed solution concentration by HPLC ([6]; water, after pH adjustment to 4.0 with 0.1 N NaOH)	hemodynamic activity relative to CXL-1020 [7]
CS(=O)(=O)c1ccccc1S(=O)(=O)NO [CXL-1020, N-hydroxy-2-methanesulfonylbenzene-1-sulfonamide]	60 µg/kg/min	approximately 3 fold	greater than or equal to 3 μg/kg/min	greater than or equal to 0.03 μg/kg/min	well tolerated	mild findings (either clinical signs and/or changes in clinical pathology) in all 8 subjects consistent with infusion site phlebitis									
Cc1ccc(S(=O)(=O)NO)o1 [Compound (1), N-Hydroxy-5-methylfuran-2-sulfonamide]							40 min	25 min	> 100 µg/mL	> 1000 µg/mL	2.8	> 100000 µg/mL	≥ 300000 µg/mL	268 mg/mL	comparable hemodynamic activity to CXL-1020
CS(=O)(=O)c1cccc(S(=O)(=O)NO)c1 [(2), N-Hydroxy-3-methanesulfonylbenzene-1-sulfonamide]							20 min	33 min	> 100 µg/mL	> 1000 µg/mL		~10000 µg/mL (≈ 39.8 mM)			
